Results on 28 substances are retold here after paper PMC9562341, “AI protein structure prediction-based modeling and mutagenesis of a protostome receptor and peptide ligands reveal key residues for their interaction” (The Journal of Biological Chemistry, 2022).

Entries after “also recorded” stand apart in the source; their conditions may differ. Read-outs that look alike come from different tables or passages of the source. Where no end group is shown, it is not given here.

Assay [1] deals with T1, ALKR (Aplysia leucokinin-like peptide receptor) (Aplysia californica, UniProt A0A977Q7Q2).
T1 sequence (A0A977Q7Q2 1-429): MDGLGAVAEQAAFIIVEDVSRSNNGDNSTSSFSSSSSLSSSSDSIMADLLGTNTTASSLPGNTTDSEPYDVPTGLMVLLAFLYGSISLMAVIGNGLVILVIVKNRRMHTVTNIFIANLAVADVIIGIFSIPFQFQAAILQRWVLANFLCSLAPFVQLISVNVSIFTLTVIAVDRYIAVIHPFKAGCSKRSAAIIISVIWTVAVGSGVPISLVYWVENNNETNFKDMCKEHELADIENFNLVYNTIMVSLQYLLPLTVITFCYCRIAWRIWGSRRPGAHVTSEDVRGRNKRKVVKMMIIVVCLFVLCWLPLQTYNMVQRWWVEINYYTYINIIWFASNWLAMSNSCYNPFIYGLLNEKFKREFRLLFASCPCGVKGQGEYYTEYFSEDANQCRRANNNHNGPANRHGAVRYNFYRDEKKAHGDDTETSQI
The assay is described as follows: IP1 accumulation assay, CHO-K1 cells transfected with ALKR. The format is cell-based. The following applies: for EC50: CHO-K1 transiently transfected with ALKR, no promiscuous Gαq, ALK1 n = 13, ALK2 n = 4, others n = 3; for Activation of ALKR (in words): IP1 accumulation in CHO-K1 transfected with ALKR; for Active (√ active / × not active): ALKR, tick or cross in column Active (EC50). The text has this:
To examine whether the native ALKs could activate the putative ALKR, we expressed the ALKR in Chinese hamster ovary K1 (CHO-K1) cells and examined ALK-mediated changes in the concentration of inositol monophosphate (IP1), a degradation product of the second messenger (inositol trisphosphate) in the Gq signaling pathway upon ligand-induced activation ([88]) (Figs. 4 and S5). […] All endogenous ALK peptides could activate ALKR in a dose-dependent manner (Fig. 4, A–C). […] The lowest EC50 values were for ALK8 (EC50 = 10 nM) and ALK9 (EC50 = 10 nM). The EC50 values for ALK1, ALK2, ALK3, ALK4, ALK5, ALK10, ALK13 were slightly higher than that of ALK9, but there was no statistically significant difference between them (Table S5).
(§1) IP1 accumulation assay measures concentration of IP1 ([88]), that is hydrolyzed from the second messenger, inositol trisphosphate, generated by Gαq pathway when GPCR expressed in CHO-K1 cells is activated by an appropriate ligand. We note two reasons that we selected mammalian CHO-K1 cells for assays for ligand-receptor (GPCR) activity: (1) there are no established molluscan cell lines available; (2) CHO-K1 cells have been extensively utilized not only for vertebrate GPCRs (e.g., ([97])) but also for invertebrate/protostome GPCRs, including other molluscs ([9], [11], [73]), annelids ([8]), jellyfish ([98]), Caenorrhabditis elegans ([99]), and arthropods ([76], [78], [79], [80]). Given that LKRs are only present in protostomes ([6], [7], [66], [67]), an additional advantage of using mammalian cells to assay ligand-receptor activity is that the effects of a possible native LKR in protostome cell lines could be excluded.
(§2) In order to express the Aplysia putative receptor transiently in CHO-K1, the cDNA was cloned into the mammalian expression vector pcDNA3.1(+). […] Transfection experiments were performed when the cells were grown to 70 to 90% confluence. For the ALKR, in each dish (60-mm diameter), 4 μg of the putative receptor plasmids [in pcDNA3.1(+)] were mixed with 400 μl of Opti-MEM (Gibco, 11058021), followed by the addition of 15 μl of Turbofect (Thermo Fisher Scientific, R0531). […] Thus, 3 μg of the putative receptor plasmids [in pcDNA3.1(+)] and 3 μg of promiscuous Gαq protein ([89]) [in pcDNA3.1(+)] were cotransfected in the above procedure for the Anopheles LKR ([8], [10]). The CHO-K1 cells with the reagents added above were mixed gently and incubated at room temperature for 15 min. The DNA/Turbofect mixture dropwise was then added to the dish, and the cells were incubated at 37 °C in 5% CO2 overnight. The next day, the cells were trypsinized and reseeded in opaque white 96-well half-area (Corning, 3688) or 384-well tissue culture–treated plates (Corning, 3570) at a density of 20,000 cells/well in F-12K and 10% FBS and incubated at 37 °C in 5% CO2 overnight. On the third day, the activation of the receptors was detected by monitoring IP1 accumulation using IP1 detection kit (Cisbio, 62IPAPEB) with a Tecan Spark plate reader. Except for using 0.5 × reagents for the anti-IP1-cryptate and IP1-d2 reagents, all other procedures were performed in accordance with the IP1 detection kit manufacturer’s instructions.

The target of assay [2] is T2, Anopheles LKR (Anopheles stephensi, UniProt Q694V6).
T2 sequence (Q694V6 1-573): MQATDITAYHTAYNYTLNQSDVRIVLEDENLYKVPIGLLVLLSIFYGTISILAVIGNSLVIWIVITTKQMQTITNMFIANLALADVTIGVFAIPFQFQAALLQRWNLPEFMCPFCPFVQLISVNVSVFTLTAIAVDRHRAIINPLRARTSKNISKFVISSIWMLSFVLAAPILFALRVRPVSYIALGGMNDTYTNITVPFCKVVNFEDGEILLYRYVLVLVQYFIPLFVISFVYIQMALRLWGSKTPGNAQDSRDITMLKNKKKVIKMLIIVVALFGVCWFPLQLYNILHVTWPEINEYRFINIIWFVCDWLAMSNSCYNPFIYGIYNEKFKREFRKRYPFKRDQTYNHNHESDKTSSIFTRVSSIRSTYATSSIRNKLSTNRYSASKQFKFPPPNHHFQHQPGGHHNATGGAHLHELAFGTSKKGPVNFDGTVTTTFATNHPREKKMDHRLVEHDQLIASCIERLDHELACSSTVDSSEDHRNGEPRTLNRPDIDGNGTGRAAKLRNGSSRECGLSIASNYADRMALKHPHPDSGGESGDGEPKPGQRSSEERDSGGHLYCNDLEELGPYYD
The assay is described as follows: IP1 accumulation assay, CHO-K1 cells cotransfected with Anopheles LKR and promiscuous Gαq. The format is cell-based. The following applies: log scale, mean ± SEM, n = 3.
Source text: Considering the similarity of leucokinin-like peptides in different species (Fig. 1), we sought to evaluate cross-activity between leucokinin peptides and their receptors in different species. We selected A. stephensi because it is a pest, and this would also provide an opportunity to determine if Aplysia LKs could be potentially used as insecticides ([67]). […] Thus, we cotransfected promiscuous Gαq with the Anopheles receptor, whereas there was no cotransfection of promiscuous Gαq for ALKR.
as §1
as §2, with “Except for using 0.5 × reagents for the anti-IP1-cryptate and IP1-d2 reagents, all other procedures were performed in accordance with the IP1 detection kit manufacturer’s instructions.” left out

Assay [3] deals with Aplysia leucokinin-like peptide receptor (Aplysia californica).
Assay [4] shares this target. The source holds these as a separate data set.
Assay [5] concerns the target ALKR N314A (Aplysia californica).
The target in assay [6] is ALKR L157Q (Aplysia californica).
The target of assay [7] is ALKR Q133A (Aplysia californica).
In assay [8] the target is ALKR Y213A (Aplysia californica).
Assay [9] concerns the target ALKR Q133A & Y213A & Q317A (Aplysia californica).
Assay [10] deals with ALKR Q250A & Q311A (Aplysia californica).
For assay [11], the target named is ALKR Q317A (Aplysia californica).
In assay [12] the target is ALKR L157Q & I329Q (Aplysia californica).
The target of assay [13] is ALKR I329Q (Aplysia californica).
Where [14] appears, read: log scale, IP1 detection kit (Cisbio), mean ± SEM, inactive: greater than highest concentration tested, read-out: log [EC50] on ALKR (converted).
The mark [15] stands for this setting: IP1 accumulation, average, rounded to two significant figures, read-out: EC50 on ALKR.

By EC50 is commonly meant the concentration that produces a half-maximal response. As for “DTPRYVSKQKFHSWG-NH2 [Anopheles LK1, reference compound]”, the EC50 is 427 nM in assay [1] (setting [14]) and 3.63 nM in [2].

For the substance Aplysia leucokinin-like peptide 12, the EC50 of IP1 accumulation in CHO-K1 cells transfected with ALKR in assay [3] was 330 nM.

Consider LAAFHAWS-NH2 [ALK12], for which the concentration giving a half-maximal response (EC50) in [1] (setting [14]) is 295 nM.

In [3], Aplysia leucokinin-like peptide 8 registered an EC50 of IP1 accumulation in CHO-K1 cells transfected with ALKR of 10 nM.

PAFSAWS-NH2 [ALK3]: in [1] (setting [14]), the concentration giving a half-maximal response (EC50) is 11.7 nM.

Substance Aplysia leucokinin-like peptide 9 displayed an EC50 of IP1 accumulation in CHO-K1 cells transfected with ALKR in [3] of 10 nM.

ALK1 with H4 replaced with A (peptide): the EC50 of IP1 accumulation in CHO-K1 cells transfected with ALKR in [4] was 51 nM.

PAFSPWS-NH2 [ALK9]: the EC50 in assay [1] (setting [14]) is 9.77 nM; in [2], 724 nM.

As to Aplysia leucokinin-like peptide 11, the EC50 of IP1 accumulation in CHO-K1 cells transfected with ALKR in assay [3] was 62 nM.

PAFASWS-NH2 [ALK1_A4]: the concentration giving a half-maximal response (EC50) in assay [1] (setting [14]) was 51.3 nM.

Take PAFNAWG-NH2 [ALK8]: the figures for the EC50 in assay [1] (setting [14]) and in assay [2] were 10.2 nM and 40.7 nM, respectively.

Consider PAFHSAS-NH2 [ALK1_A6], for which the EC50 in [1] (setting [15]) and in assay [1] (setting [14]) was more than 10000 nM in each case. Further, the “Activation of ALKR (in words)” value in [1] was “not active”. Besides, in [1] (IP1 accumulation), the “Active (√ active / × not active)” value is reported as “×”.

As to PRFHAWS-NH2 [ALK7], the 50% effective concentration (EC50) in assay [1] (setting [14]) was 91.2 nM.

Turning to PAFHSWA-NH2 [ALK1_A7], in [1] (setting [14]), the EC50 was 28.2 nM.

As to PAFQAWS-NH2 [ALK13], in assay [1] (setting [14]), the EC50 is 15.1 nM.

For the substance PAFHAWS-NH2 [ALK2], in [1] (setting [14]), the EC50 was 21.4 nM.

For the substance PAFSAWN-NH2 [ALK5], the EC50 in [1] (setting [14]) is 10.5 nM.

In the case of SEKQPAFHAWS-NH2 [ALK6], in assay [1] (setting [14]), the EC50 was 31.6 nM.

For Aplysia leucokinin-like peptide 7, in [3], the EC50 of IP1 accumulation in CHO-K1 cells transfected with ALKR worked out at 92 nM.

Regarding PAFHAWG-NH2 [ALK10], in assay [1] (setting [14]), the EC50 was 21.4 nM.

Turning to AGFAPWA-NH2 [ALK4], the EC50 in assay [1] (setting [14]) is 19.5 nM.

As for PAFHSWS-OH [ALK1-OH], the EC50 in assay [1] (setting [15]) and in assay [1] (setting [14]) was more than 10000 nM each time. For the same substance, the “Activation of ALKR (in words)” value in assay [1] was “not active; also recorded: not able to activate”.

For the substance PAFHSWS-OH [ALK1_nG], the “Active (√ active / × not active)” value in assay [1] (IP1 accumulation) is listed as “×”.

As to Aplysia leucokinin-like peptide 1, the EC50 of IP1 accumulation in CHO-K1 cells expressing the ALKR mutant, activated by ALK1 in [5] was 120 nM; in [6] it was 77 nM; in assay [7] it was 78 nM; in assay [8], 370 nM; in assay [9], 13000 nM; in assay [10], 19000 nM. Also, the EC50 of IP1 accumulation in CHO-K1 cells expressing the ALKR mutant, activated by ALK1 is 56 nM in assay [11], 35000 nM in assay [12] and 6800 nM in [13].

Take PAAHSWS-NH2 [ALK1_A3]: the concentration for a half-maximal effect (EC50) in assay [1] (setting [15]) and in assay [1] (setting [14]) was more than 10000 nM throughout. The “Activation of ALKR (in words)” value in [1] is recorded as “not active”. Moreover, the “Active (√ active / × not active)” value in [1] (IP1 accumulation) is “×”.

Aplysia leucokinin-like peptide 6: the EC50 of IP1 accumulation in CHO-K1 cells transfected with ALKR in assay [3] stood at 32 nM.

Take AAFHSWS-NH2 [ALK1_A1]: the 50% effective concentration (EC50) in assay [1] (setting [14]) was 141 nM.

For PAAFHAWS-NH2 [ALK11], in assay [1] (setting [14]), the EC50 was 61.7 nM.
